Results taken from ChEMBL document CHEMBL5728681, “Macrocyclic compounds as TRK kinase inhibitors and uses thereof” (2021).

Biological target: High affinity nerve growth factor receptor (Homo sapiens, UniProt P04629)
Assay: HotSpot Assay: The HotSpot assay platform was used to measure kinase/inhibitor interactions as described in Anastassiadis et al., Nat Biotechnol. 29:1039-45, 2011. In brief, for each reaction, kinase and substrate were mixed in a buffer containing 20 mM HEPES (pH 7.5), 10 mM MgCl2, 1 mM EGTA, 0.02% Brij35, 0.02 mg/mL BSA, 0.1 mM Na3VO4, 2 mM DTT, and 1% DMSO. Compounds were then added to each reaction mixture. After a 20-min incubation, ATP (Sigma-Aldrich) and [γ-33P] ATP (PerkinElmer) were added at a final total concentration of 100 μM. Reactions were carried out at room temperature for 2 h and spotted onto P81 ion exchange cellulose chromatography paper (Whatman). Filter paper was washed in 0.75% phosphoric acid to remove unincorporated ATP. The percent remaining kinase activity relative to a vehicle-containing (DMSO) kinase reaction was calculated for each kinase/inhibitor pair.

Sequence of High affinity nerve growth factor receptor (P04629 whole entry): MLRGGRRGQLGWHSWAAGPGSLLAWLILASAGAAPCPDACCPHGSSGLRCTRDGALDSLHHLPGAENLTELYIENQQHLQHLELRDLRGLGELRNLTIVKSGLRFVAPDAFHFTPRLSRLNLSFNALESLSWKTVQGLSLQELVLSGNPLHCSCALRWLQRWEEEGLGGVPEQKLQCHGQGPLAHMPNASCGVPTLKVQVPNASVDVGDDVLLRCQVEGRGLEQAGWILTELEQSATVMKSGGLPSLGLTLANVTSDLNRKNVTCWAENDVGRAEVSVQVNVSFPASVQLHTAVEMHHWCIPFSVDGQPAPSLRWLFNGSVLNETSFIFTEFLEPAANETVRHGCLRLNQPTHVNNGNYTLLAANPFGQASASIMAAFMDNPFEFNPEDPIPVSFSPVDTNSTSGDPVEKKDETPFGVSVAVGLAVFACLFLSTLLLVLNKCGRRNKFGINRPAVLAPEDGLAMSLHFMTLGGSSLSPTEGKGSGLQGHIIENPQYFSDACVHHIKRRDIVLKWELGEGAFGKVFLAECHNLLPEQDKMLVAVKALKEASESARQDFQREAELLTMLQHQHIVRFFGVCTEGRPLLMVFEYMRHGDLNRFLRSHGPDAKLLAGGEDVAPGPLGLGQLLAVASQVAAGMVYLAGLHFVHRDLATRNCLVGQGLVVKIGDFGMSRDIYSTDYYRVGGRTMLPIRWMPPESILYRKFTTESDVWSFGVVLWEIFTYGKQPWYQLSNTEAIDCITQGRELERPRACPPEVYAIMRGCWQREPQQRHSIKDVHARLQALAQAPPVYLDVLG

SMILES: C=C1c2ncc(F)cc2[C@H]2CCCN2c2ccn3ncc(c3n2)C(=O)N[C@@H]1C
- IC50: < 100 nM
